Assay results reported in patent publication US20230272077A1, “PD-1 SIGNAL INHIBITOR COMBINATION THERAPY” (KYOTO UNIVERSITY, priority 2015, published 2023).
“Also recorded” adds a separate entry of the source.

Experiments:
MC38 = experiment: Mouse therapy model, MC38-bearing mice (tumor volume, survival); assay type: in vivo
Procedure: MC38 (5×10^5) and MethA (5×10^5) cells were intradermally injected on the right flank. MC38 was inoculated into C57BL/6 mice and MethA was inoculated into BALB/c mice. For monotherapy, mice were intraperitoneally injected with 150 μg of PD-L1 mouse antibody (1-111A) (prepared by the laboratory of the present inventors) 5 days after the tumor inoculation. Therapy with PD-L1 antibody alone was repeated three times every 5 days. For combination therapy, administration of PD-L1 antibody and chemical agents started 7 days after tumor injection. Chemical agents were injected at a regular interval of 2 days and PD-L1 antibody at a regular interval of 5 days (shown in FIG. 3b). Tumors were measured on every alternate day, and tumor volumes were calculated using the formula for typical ellipsoid, π×(length×breadth×height/6).
The following chemical reagents were used at the indicated concentrations for combination therapy. AMPK activator: A769662, 6 mg/kg (Abcam); mTOR activator: MHY1485, 3 μg/kg (Sigma-Aldrich); uncoupler: carbonylcyanide-p-trifluoromethoxyphenylhydrazone (FCCP), 1.2 mg/kg (Abcam); uncoupler: 2,4-Dinitrophenol (DNP), 1.7 mg/kg (Aldrich); SIRT1 activator: resveratrol, 0.5 mg/kg (Abcam); ROS scavenger: Mn (III) tetrakis (4-benzoic acid) porphyrin (MnTBAP), 1.25 mg/kg (Calbiochem); ROS generator: tert-butyl hydroperoxide solution (Luperox TBH70X), 200 μL/kg (Sigma-Aldrich); ATP synthase inhibitor: oligomycin, 250 μg/kg (Sigma-Aldrich); paraquat 2 mg/kg (Nakalai Tesque); oltipraz 1.9 mg/kg (Sigma); bezafibrate 1 mg/kg (ChemCruz).
All reagents were freshly prepared just before use. Each reagent was dissolved in the solvent indicated in the instructions. Note that the AMPK activator, mTOR activator, uncouplers and SIRT1 activator were prepared from fresh unused vials in each series of experiments. Dissolved reagents were diluted in PBS, and a 200 l aliquot was injected per mouse.
Murine colon adenocarcinoma MC38 cells (5×10^5) were inoculated into C57BL/6 mice. After 7 days, anti-PD-L1 antibody (1-111A, 150 μg) and AMPK inhibitor (Compound C: 200 μg in BBS, 200 μL) were administered intraperitoneally. Anti-PD-L1 antibody was administered 3 times at a regular interval of 6 days; Compound C (C.C) was administered 7 times at a regular interval 2 days.
MC38 cells (5×10^5) were inoculated into C57BL/6 mice. After 7 days, anti-PD-L1 antibody (1-111A, 150 μg) and PGC-1α/transcription factor complex activator (2-(4-{2-[(4-chlorobenzoyl)amino]ethyl}phenoxy)-2-methylpropanoic acid (bezafibrate): 10 ug in PBS, 200 ul) were administered intraperitoneally. Anti-PD-L1 antibody was administered 3 times at a regular interval of 6 days; bezafibrate was administered 7 times at a regular interval 2 days.

T-bet and Eomes = T-bet and Eomes expression by flow cytometry in DLN CD8+ T cells; assay type: in vivo, mouse; settings: combined with PD-L1 antibody
Procedure: (§1) FIG. 15. […] Data represent the means±SEM of five mice. *p<0.05, **p<0.01, one-way ANOVA.
(§2) The following antibodies recognizing the indicated antigens were used: CD44 (1M7), CD45.2 (104), CD45.1 (A20), CD8 (53-6.7), CD62L (MEL-14), T-bet (4B/O) and IFN-7 (XMG1.2), MHC class I (AF6-88.5), CD155 (Tx56) and VISTA (MIH63) from BioLegend; p-AMPK (EPR5683) from Ancam; p-mTOR (MRRBY), Eomes (Danllmag) and PD-L1 (M1H5) from eBioscience. All flow cytometry experiments were performed on a FACS Canto II (BD Biosciences) and analyzed using FlowJo software (FLOWJO, LLC). For assessment of intracellular phosphoproteins, cells were permeabilized with 0.5% Triton-X and fixed with 1.5% PFA before staining. Determination of mitochondrial mass, membrane potential, mitochondrial superoxide and cellular ROS was performed using MitoTracker Green, Mito-Tracker Deep Red, MitoSOX Red, and CellROX Green reagents, respectively (all from Life Technologies). These dyes were added to cells to a final concentration of 0.125 μM, 0.125 μM, 5.0 μM and 0.625 μM, respectively, and incubated at 37° C. in a 5% CO2 humidified incubator for 30 min.

IFN-γ = experiment: Intracellular IFN-γ staining of CD8+ T cells from digested tumor tissues; assay type: in vivo, mouse; settings: CD8+ T cells in tumors; combined with PD-L1 antibody
Procedure: as §1, §2

PGC-1α = PGC-1α expression (Western blotting, real-time RT-PCR); assay type: in vivo, mouse; settings: combination therapy together with PD-L1 antibody
Procedure: RNA was isolated from CD8^+ T cells or tumor cells with the RNeasy Mini Kit (Qiagen), followed by cDNA synthesis by reverse transcription. Real-time PCR for PGC-1α was performed using the following primers: Forward […] (SEQ ID NO: 1) and Reverse […] (SEQ ID NO: 2). To analyze the expression levels of genes associated with apoptosis and mitochondrial energy metabolism, RT2 Profiler PCR Array Gene Expression Kit PAMM-012Z or PAMM-008Z (Qiagen) was used. The list of genes included in this assay can be found in www.sabiosciences.com/Apoptosis.php.
CD8^+ T cells were isolated using mouse CD8 Microbeads (Miltenyi Biotec). After washing with PBS twice, 2×10^6 cells were solubilized in a lysis buffer containing 30 mM Tris-HCl (pH.7.4), 150 mM NaCl, 10% glycerol, 0.1% SDS, 1% Triton-X-100, 0.05% Na-Doc, 5 mM EDTA (pH.8.0), protease inhibitor mixture (Roche Molecular Biochemicals) and phosphatase inhibitors (Nacalai Tesque). After measurement of protein concentrations by DC protein assay (Bio-Rad), 4 μg of proteins was mounted on 4 to 20% gradient Mini-PROTEAN TGX Gels (Bio-Rad) and electroblotted onto nitrocellulose membranes, which were then incubated in a blocking buffer of TBS containing 1% BSA. Primary antibody incubations were carried out overnight at 4° C. in blocking buffer. After washing, secondary antibody incubations were carried out at room temperature for 40 min in blocking buffer. Blots were developed with enhanced chemiluminescence (Amersham Pharmacia). Primary antibodies recognizing the following proteins were used: Phospho-mTOR (P-mTOR) (Cat #5536), Phospho-AMPKa (P-AMPK) (#2535), Phospho-p70 S6 Kinase (P-S6K) (#9205), 4E-BP1 (#9644), Phospho-Acetyl-CoA Carboxylase (P-ACC) (#3661) and SIRT1 (#9475). All the primary antibodies were obtained from Cell Signaling Technology. An antibody recognizing PGC-1α (SC-13067) was obtained from Santa Cruz.

Compound: N#CC(C#N)=NNc1ccc(OC(F)(F)F)cc1 [FCCP, carbonyl cyanide p-trifluoromethoxyphenylhydrazone]
- antitumor effect when administered alone (MC38; MC38-bearing mice, reagent alone, no PD-L1 antibody, tumor volume): failed to exhibit any antitumor effect
- enhancement of antitumor effect of PD-L1 antibody (tumor volume) (MC38; MC38-bearing mice, reagent combined with PD-L1 antibody vs PD-L1 antibody alone): augmented the efficacy of PD-L1 antibody therapy; also recorded: enhance the antitumor effect of PD-L1 antibody
- survival rate (MC38; mouse, in vivo): remarkably improved the survival rate
- Eomes expression (T-bet and Eomes): not Eomes expression
- T-bet expression (T-bet and Eomes): increased T-bet expression; also recorded: up-regulated
- IFN-γ production (IFN-γ): increased; also recorded: up-regulated
- expression levels of PGC-1α protein and mRNA (PGC-1α): increased
